In ChEMBL document CHEMBL1165960, “Identification of the three-dimensional pharmacophore of kappa-opioid receptor agonists” (Bioorg Med Chem, 2010):
pKi: −log10 of the molar value.

How the values were obtained:
[1] = biological target: Kappa-type opioid receptor (Homo sapiens, UniProt P41145); assay: Binding affinity to kappa opioid receptor
[2] = Selectivity ratio of Ki for mu opioid receptor to kappa opioid receptor

Chain of Kappa-type opioid receptor (P41145 whole entry): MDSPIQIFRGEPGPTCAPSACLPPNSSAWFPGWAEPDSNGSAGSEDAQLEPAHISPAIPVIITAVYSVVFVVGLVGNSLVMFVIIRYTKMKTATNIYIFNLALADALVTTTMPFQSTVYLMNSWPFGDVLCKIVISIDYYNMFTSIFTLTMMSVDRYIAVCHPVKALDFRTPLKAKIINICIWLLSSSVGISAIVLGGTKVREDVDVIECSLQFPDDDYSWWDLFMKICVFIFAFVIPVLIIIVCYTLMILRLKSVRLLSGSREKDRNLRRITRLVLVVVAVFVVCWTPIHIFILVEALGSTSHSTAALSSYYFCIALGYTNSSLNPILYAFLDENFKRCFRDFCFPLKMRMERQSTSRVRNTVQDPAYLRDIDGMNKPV

Row | SMILES | pKi [1] | Ratio Ki [2]
1 | COc1ccc([C@H]2CN3C(=NC[C@@H]3C)N2CCCc2ccccc2)cc1 | 7.41 | 
2 | O=C(Nc1ccccc1)[C@@H]1O[C@@]23CC[C@@]1(O)[C@@H]1Oc4c(O)ccc5c4[C@@]12CCN(CC1CC1)[C@@H]3C5 | 9.82 | 1.3
3 | O=C(Nc1ccccc1)[C@H]1O[C@@]23CCC1(O)[C@@H]1Oc4c(O)ccc5c4[C@@]12CCN(CC1CC1)[C@@H]3C5 (single isomer, unassigned) | 9.95 | 1.9
4 | O=C(NC[C@H]1C[C@]23CCN(CC4CC4)[C@H](Cc4ccc(O)cc42)[C@]3(O)CO1)c1ccccc1 | 9.87 | 1
5 | NC(=O)[C@H]1CSSC[C@@H](NC(=O)[C@@H](N)Cc2ccc(O)cc2)C(=O)N[C@@H](Cc2ccccc2)C(=O)N1 | 7.41 | 0.03
6 | CN(C(=O)/C=C/c1ccco1)[C@@H]1CC[C@@]2(O)[C@H]3Cc4ccc(O)c5c4[C@@]2(CCN3CC2CC2)[C@H]1O5 |  | 2.6
7 | CCC12CCN(CC3(O)CC3)C(Cc3ccc(O)cc31)C2(C)C (stereo unspecified) [BREMAZOCINE] | 10.40 | 3.8
8 | CN1c2ccccc2C(c2ccccc2F)=NCC1CNC(=O)c1ccsc1 (stereo unspecified) [TIFLUADOM] | 9.77 | 8.8
9 | COC(=O)[C@]12CN(C)C[C@](C(=O)OC)(C1=O)[C@@H](c1ccccn1)N(C)[C@H]2c1ccccn1 | 7.82 | > 66.7
